Reference: patent publication US4111945A, “Process for the preparation of 3,4,5-trimethoxy-phenyl-(1,4-dimethyl-1,2,3,6-tetrahydro-2-pyridyl)-carb inol” (Laboratories Made, S.A., priority 1976, dated 1978)

How the values were obtained:
Format in all cases: in vivo
Swiss ICR albino mice [1] = assay: Chemical analgesia, acetic acid writhing technique
Protocol: The analgesic effect was studied in Swiss ICR albino mice using the acetic acid writhing technique. The animals were divided into batches of 10.
The products studied were administered intraperitoneally and after 30 minutes 0.25 ml of 1% acetic acid was injected intraperitoneally. A batch of control animals was given only the acetic acid. The number of writhings made by each mouse in the 20 minutes after the administration of the acetic acid was counted.

[2] = Acute toxicity, intraperitoneal (Litchfield-Wilcoxon); conditions: mouse, in vivo, ip, Swiss ICR mice of both sexes, 25 ± 2 g, read-out: Lethal Dose 50 (LD50)
Protocol: (§1) Acute toxicity studies were made in Swiss ICR mice of both sexes weighing 25 ± 2 g. The products were administered intraperitoneally. Acute toxicity calculations were made by the Litchfield-Wilcoxon method.

Swiss ICR albino mice [3] = assay: Thermal analgesia, hot-plate technique at 55° C.; conditions: for Jumping time (mean ± S.E.M.): 30 mg/kg, intraperitoneal, 30 minutes, hot-plate 55° C., control 50.1 ± 3.16
Protocol: The thermal analgesia effect was studied in Swiss ICR albino mice. The hot-plate technique at 55° C. was used. The […] were divided into batches of 10.
The products being studied were administered intraperitoneally and after 30 minutes the animals were placed on the hot-plate, the time in seconds being counted until the animals started to jump. Batches of control animals which had received injections of distilled water only were used.

Swiss ICR mice = assay: Acute toxicity, intraperitoneal (Litchfield-Wilcoxon); conditions: Swiss ICR mice of both sexes, 25 ± 2 g
Protocol: as §1

Structure (SMILES) | No. of writhings (mean ± S.E.M.) (Swiss ICR albino mice [1]; 30 mg./kg., intraperitoneal, 30 minutes before acetic acid, counted over 20 minutes, control 93) | chemical analgesic activity (Swiss ICR albino mice [1]; conclusion in words, compared with dextropropoxyphene) | LD50 [2] [mg/kg] | Jumping time (mean ± S.E.M.) (Swiss ICR albino mice [3]) [s] | thermal analgesic activity (Swiss ICR albino mice [3]; conclusion in words) | Lethal Dose 50 (LD50) (Swiss ICR mice) [mg/kg]
COc1cc(C(O)C2CC(C)=CCN2C)cc(OC)c1OC (stereo not shown) [Product VIII, 3,4,5-trimethoxyphenyl-(1,4-dimethyl-1,2,3,6-tetrahydro-2-pyridyl)-carbinol] | 58.8 ± 10.2 | same intensity as dextropropoxyphene | 201 | 51.8 ± 5.46 | lacks thermal analgesic activity | 
CCC(=O)O[C@](Cc1ccccc1)(c1ccccc1)[C@H](C)CN(C)C [Dextropropoxyphene, dextropropoxyphene, reference compound] |  |  |  | 91 ± 17.17 |  | 140
